In US20250136556A1, “NOVEL MODULATORS OF THE ARYL HYDROCARBON RECEPTOR AND METHODS OF USE THEREOF” (Allianthera (Suzhou) Biopharmaceutical Co., Ltd., priority 2021, published 2025) one finds EC50 data, which are given here for 34 compounds.

For this assay, the target named is T1, Human Aryl Hydrocarbon Receptor (AHR) (Homo sapiens, UniProt P35869).
T1 construct: purchased INDIGO Bioscience IB06001-32; host or cells: AHR Reporter Cell (proprietary kit cells)
T1 sequence (P35869 11-848): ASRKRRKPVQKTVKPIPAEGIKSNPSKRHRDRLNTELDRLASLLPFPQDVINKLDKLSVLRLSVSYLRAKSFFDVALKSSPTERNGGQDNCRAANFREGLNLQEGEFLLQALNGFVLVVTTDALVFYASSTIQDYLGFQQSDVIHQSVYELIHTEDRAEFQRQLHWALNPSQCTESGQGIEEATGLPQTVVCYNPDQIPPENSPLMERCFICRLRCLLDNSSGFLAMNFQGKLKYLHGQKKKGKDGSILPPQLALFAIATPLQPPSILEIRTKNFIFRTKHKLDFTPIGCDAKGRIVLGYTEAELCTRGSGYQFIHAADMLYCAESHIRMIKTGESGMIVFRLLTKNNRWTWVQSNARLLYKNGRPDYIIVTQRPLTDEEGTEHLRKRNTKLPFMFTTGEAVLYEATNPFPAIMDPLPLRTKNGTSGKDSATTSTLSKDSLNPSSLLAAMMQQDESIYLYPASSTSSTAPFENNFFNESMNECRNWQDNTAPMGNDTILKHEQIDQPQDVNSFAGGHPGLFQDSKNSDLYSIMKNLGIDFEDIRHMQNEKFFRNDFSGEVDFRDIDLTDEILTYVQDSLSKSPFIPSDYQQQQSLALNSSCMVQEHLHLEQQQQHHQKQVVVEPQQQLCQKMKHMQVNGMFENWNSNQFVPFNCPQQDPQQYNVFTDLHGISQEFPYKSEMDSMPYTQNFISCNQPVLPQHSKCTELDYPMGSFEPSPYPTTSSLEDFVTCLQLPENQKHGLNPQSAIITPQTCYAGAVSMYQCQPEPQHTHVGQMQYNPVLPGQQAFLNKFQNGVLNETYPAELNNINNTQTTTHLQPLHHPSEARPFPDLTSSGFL
Description: AHR agonist reporter assay in human cell line (INDIGO luciferase reporter).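 Note: firefly luciferase luminescence read on a plate reader, values normalized against positive and negative controls.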 It counts as cell-based. The settings on record: reporter cells, 24 hours incubation, second line of cell; read-out: AHR abEC50.
Description: The AHR reporter assay was performed following the protocol of the Human Aryl Hydrocarbon Receptor (AHR) Reporter Assay System (INDIGO Bioscience, #IB06001-32). AHR Reporter Cell was thawed and pre-incubated in Cell Recovery Medium (CRM) for 6 hours. […] Following 24 hours incubation, the media was removed and Luciferase Detection Reagent (LDR) added. The firefly luciferase activity was quantified using a plate reader. Results were normalized by positive and negative controls.
For the compound `CC(C)c1c(O)cc(-c2cccc3cc(F)c(O)nc23)cc1O` [Compound 5], the EC50 came out at 78.7 nM. The result for `CC(C)c1c(O)cc(-c2ccnc3c(F)cccc23)cc1O` [Compound 3] reads more than 100 nM; that for `COc1cc(-c2cc(O)c(C(C)C)c(O)c2)cc2cccnc12` [Compound 18], more than 100 nM.

Consider `Cc1ccnc2cc(-c3cnc(C(C)C)c(O)c3)ccc12` [Compound 73], for which the EC50 was more than 100 nM. Regarding `CC(C)c1ncc(-c2cc(F)c3cnc(N)nc3c2)cc1O` [Compound 90], the EC50 is more than 100 nM. The result for `CC(C)c1c(O)cc(S(=O)(=O)c2ccccc2)cc1O` [Compound 131, 2-isopropyl-5-(phenylsulfonyl)benzene-1,3-diol] reads more than 400 nM; that for `CC(C)c1c(O)cc(-c2cc3cccnc3cc2F)cc1O` [Compound 7], more than 100 nM; that for `CC(C)c1c(O)cc(-c2cnc3c(F)c(F)ccc3c2)cc1O` [Compound 45], 38.9 nM. As for `CC(C)c1ncc(-c2cc3ccccc3nc2C#N)cc1O` [Compound 79], the EC50 was more than 100 nM. The result for `CC(C)c1c(O)cc(-c2ccc3nccnc3c2)cc1O` [Compound 40] reads more than 100 nM. The result for `CC(C)c1c(O)cc(-c2ccc3ncccc3c2F)cc1O` [Compound 10] reads 33.4 nM.

Regarding `CC(C)c1ncc(-c2ccc3cc(F)ccc3n2)cc1O` [Compound 60], the EC50 is more than 100 nM. As to `CC(C)c1ncc(-c2ccc(F)c3ccc(C(F)(F)F)nc23)cc1O` [Compound 64], the EC50 was more than 100 nM.

Regarding `CC(C)c1ncc(-c2ccnc3c(Cl)cccc23)cc1O` [Compound 68], the EC50 is more than 100 nM. The result for `CC(C)n1c(O)cc(/C=C/c2ccccc2)cc1=O` [Compound 105, (E)-6-hydroxy-1-isopropyl-4-styrylpyridin-2(1H)-one] reads more than 400 nM. The result for `CC(C)c1c(O)cc(-c2cc(F)c3ncccc3c2)cc1O` [Compound 6] reads 109 nM; that for `CC(C)c1c(O)cc(-c2cc(O)cc3cccnc23)cc1O` [Compound 15], more than 100 nM; that for `CC(C)c1c(O)cc(-c2ccnc3c(Cl)cccc23)cc1O` [Compound 17], more than 100 nM.

Take `CC(C)c1ncc(-c2ccc3ncccc3c2F)cc1O` [Compound 61]: the EC50 was more than 100 nM.

Turning to `COc1ccc2ccc(-c3cnc(C(C)C)c(O)c3)cc2n1` [Compound 78], the EC50 is more than 100 nM. Regarding `CC(C)c1c(O)cc(-c2ccc3ncnc(N)c3c2)cc1O` [Compound 42], the EC50 is more than 100 nM.

In the case of `CC(C)c1ncc(-c2cc(C(F)(F)F)c3cc(F)ccc3n2)cc1O` [Compound 52], the EC50 is more than 100 nM. Consider `CC(C)c1c(O)cc(-c2cnc3c(F)cc(N)cc3c2)cc1O` [Compound 2], for which the EC50 was more than 100 nM.

In the case of `CC(C)c1c(O)cc(-c2c(Cl)cc3c(O)ncnc3c2F)cc1O` [Compound 38], the EC50 was more than 100 nM. The result for `CC(C)c1ncc(-c2cc3cccnc3cc2F)cc1O` [Compound 58] reads more than 100 nM. Take `CC(C)c1c(O)cc(-c2cc3cnccc3cc2F)cc1O` [Compound 34]: the EC50 is more than 100 nM.

Consider `CC(C)c1ncc(-c2cnc3c(F)c(F)ccc3c2)cc1O` [Compound 96], for which the EC50 is more than 100 nM. The result for `CC(C)c1c(O)cc(-c2nccc3cccnc23)cc1O` [Compound 44] reads more than 100 nM; that for `CC(C)c1ncc(-c2cc(F)c3ncccc3c2F)cc1O` [Compound 63], more than 100 nM.

Turning to `CC(C)c1c(O)cc(-c2cc3ccccc3nc2C#N)cc1O` [Compound 28], the EC50 is more than 100 nM. The result for `COc1cc(-c2cnc(C(C)C)c(O)c2)cc2cccnc12` [Compound 69] reads more than 100 nM. Consider `CC(C)c1c(O)cc(Oc2ccccc2)cc1O` [Compound 132, 2-isopropyl-5-phenoxybenzene-1,3-diol], for which the EC50 is more than 400 nM. The result for `CC(C)c1c(O)cc(-c2cnc3c(C(F)(F)F)cccc3c2)cc1O` [Compound 51] reads 90 nM; that for `CC(C)c1ncc(-c2nc3ccccc3[nH]2)cc1N` [Compound 134], 101 nM.
